Assay results as given in ChEMBL document CHEMBL1124186, “Synthesis and evaluation of tylosin-related macrolides modified at the aldehyde function: a new series of orally effective antibiotics” (1988).
≈ marks a conversion by molar mass, not a printed value.

How the values were obtained:
[1] = system: Peptoniphilus asaccharolyticus; assay: In vitro antimicrobial activity against anaerobic bacteria peptococcus asaccharolyticus 1302; type: functional
Fusobacterium = assay: In vitro antimicrobial activity against anaerobic bacteria fusobacterium symbiosum 1470; type: functional
Staphylococcus aureus [2] = assay: In vivo effective dose against experimental infections in mice Staphylococcus aureus X1 when administered sc; type: functional
Streptococcus pyogenes [3] = assay: In vitro antimicrobial activity against Streptococcus pyogenes C203; type: functional
Staphylococcus aureus [4] = assay: In vitro antimicrobial activity against aerobic bacteria Staphylococcus aureus V41; type: functional
Anaerococcus prevotii = assay: In vitro antimicrobial activity against anaerobic bacteria peptococcus prevoti 1281; type: functional
Streptococcus pneumoniae [5] = assay: In vitro antimicrobial activity against aerobic bacteria Streptococcus pneumoniae B1-438; type: functional, streptococcus pneum
Clostridium perfringens = assay: In vitro antimicrobial activity against anaerobic bacteria clostridium perfringens 81,; type: functional
Streptococcus pneumoniae [6] = assay: In vivo effective dose against experimental infections in mice Strep. pneumoniae park when administered sc; type: functional
Haemophilus influenzae [7] = assay: In vitro antimicrobial activity against aerobic bacteria Haemophilus influenzae 76; type: functional
[8] = system: Staphylococcus epidermidis; assay: In vitro antimicrobial activity against Staphylococcus epidermidis EPI1; type: functional
Clostridioides difficile = assay: In vitro antimicrobial activity against anaerobic bacteria Clostridium difficile 2994; type: functional
Staphylococcus aureus [9] = assay: In vivo effective dose against experimental infections in mice Staphylococcus aureus X1 when administered orally; type: functional; details: po
Streptococcus [10] = assay: In vitro antimicrobial activity against aerobic bacteria Streptococcus D 9960; type: functional
[11] = system: Peptostreptococcus anaerobius; assay: In vitro antimicrobial activity against anaerobic bacteria eubacterium peptostreptococcus anaerobius 1428,; type: functional
[12] = system: Staphylococcus epidermidis; assay: In vitro antimicrobial activity against aerobic bacteria Streptococcus epi 222; type: functional
Clostridium septicum = assay: In vitro antimicrobial activity against anaerobic bacteria clostridium septicum 1128; type: functional
Chlamydia trachomatis = assay: In vitro antimicrobial activity against chlamydia trachomatis.; type: functional
Haemophilus influenzae [13] = assay: In vitro antimicrobial activity against aerobic bacteria Haemophilus influenzae MX366; type: functional
Collinsella aerofaciens = assay: In vitro antimicrobial activity against anaerobic bacteria eubacterium aerofaciens 1235; type: functional
Streptococcus [14] = assay: In vitro antimicrobial activity against aerobic bacteria Streptococcus D 2041; type: functional
Bacteroides fragilis [15] = assay: In vitro antimicrobial activity against anaerobic bacteria bacteroides fragilis 1936B,; type: functional
Staphylococcus aureus [16] = assay: In vitro antimicrobial activity against Staphylococcus aureus X1; type: functional
Bacteroides fragilis [17] = assay: In vitro antimicrobial activity against anaerobic bacteria bacteroides fragilis 111; type: functional
Bacteroides fragilis [18] = assay: In vitro antimicrobial activity against anaerobic bacteria bacteroides fragilis 1877; type: functional
[19] = system: Bacteroides thetaiotaomicron; assay: In vitro antimicrobial activity against anaerobic bacteria bacteroides thetaiotaomicron 1438; type: functional
Staphylococcus aureus [20] = assay: In vitro antimicrobial activity against aerobic bacteria Staphylococcus aureus 513E; type: functional
Streptococcus [21] = assay: In vitro antimicrobial activity against aerobic bacteria Streptococcus B 8; type: functional
Streptococcus pneumoniae [22] = assay: In vivo effective dose against experimental infections in mice Strep. pneumoniae park when administered orally; type: functional; details: po
Streptococcus viridans = assay: In vitro antimicrobial activity against aerobic bacteria Streptococcus viridans 9943; type: functional
Eikenella corrodens = assay: In vitro antimicrobial activity against anaerobic bacteria bacteroides corrodens 1874; type: functional
Staphylococcus aureus [23] = assay: In vitro antimicrobial activity against aerobic bacteria Staphylococcus aureus V140,; type: functional
Streptococcus [24] = assay: In vitro antimicrobial activity against aerobic bacteria Streptococcus B 5; type: functional
Streptococcus pyogenes [25] = assay: In vivo effective dose against experimental infections in rodent caused by Streptococcus pyogenes C203 when administered sc; type: functional
Enterococcus faecium = assay: In vitro antimicrobial activity against Streptococcus faecium X66; type: functional, streptococcus fae-cium
Streptococcus [26] = assay: In vitro antimicrobial activity against aerobic bacteria Streptococcus D 8043; type: functional
Streptococcus sanguinis = assay: In vitro antimicrobial activity against aerobic bacteria Streptococcus sanguis MX132; type: functional
[27] = system: Prevotella melaninogenica; assay: In vitro antimicrobial activity against anaerobic bacteria bacteroides melaninogenicus 1856,; type: functional
Streptococcus [28] = assay: In vitro antimicrobial activity against aerobic bacteria Streptococcus B 14; type: functional
Staphylococcus aureus [29] = assay: In vitro antimicrobial activity against aerobic bacteria Staphylococcus aureus X400; type: functional
[30] = In vitro antimicrobial activity against anaerobic bacteria peptostreptococcus intermedius 1264; type: functional
[31] = system: Fusobacterium necrophorum; assay: In vitro antimicrobial activity against anaerobic bacteria usobacterium necrophorum 6054A; type: functional
Phocaeicola vulgatus = assay: In vitro antimicrobial activity against anaerobic bacteria bacteroides vulgatus 1211; type: functional
Streptococcus pneumoniae [32] = assay: In vitro antimicrobial activity against Streptococcus pneumoniae; type: functional
Streptococcus [33] = assay: In vitro antimicrobial activity against aerobic bacteria Streptococcus G Kruder; type: functional; details: Streptococcus; read-out: MIC
Cutibacterium acnes = assay: In vitro antimicrobial activity against anaerobic bacteria propionibacterium acnes 79; type: functional
[34] = system: Staphylococcus epidermidis; assay: In vitro antimicrobial activity against aerobic bacteria Streptococcus epi 270; type: functional
Staphylococcus aureus [35] = assay: In vitro antimicrobial activity against aerobic bacteria Staphylococcus aureus V135; type: functional
Streptococcus [36] = assay: In vitro antimicrobial activity against aerobic bacteria Streptococcus C 24; type: functional
Haemophilus influenzae [37] = assay: In vitro antimicrobial activity against Haemophilus influenzae.; type: functional
[38] = system: Prevotella melaninogenica; assay: In vitro antimicrobial activity against anaerobic bacteria bacteroides melaninogenicus 2736; type: functional

CC[C@H]1OC(=O)C[C@@H](O)[C@H](C)[C@@H](O[C@@H]2O[C@H](C)[C@@H](O)[C@H](N(C)C)[C@H]2O)[C@@H](CCN=[N+]=[N-])C[C@@H](C)C(=O)/C=C/C(C)=C/[C@@H]1CO[C@@H]1O[C@H](C)[C@@H](O)[C@@H](OC)[C@H]1OC
MIC [1]: 1 µg/mL (≈ 1.25 µM)
MIC (Fusobacterium): 2 µg/mL (≈ 2.5 µM)
ED50 (Staphylococcus aureus [2]): 2.8 mg/kg
MIC (Streptococcus pyogenes [3]): 0.25 µg/mL (≈ 0.313 µM)
MIC (Staphylococcus aureus [4]): 0.12 µg/mL (≈ 0.15 µM)
MIC (Anaerococcus prevotii): 2 µg/mL (≈ 2.5 µM)
MIC (Streptococcus pneumoniae [5]): > 128 µg/mL
MIC (Clostridium perfringens): < 0.5 µg/mL
ED50 (Streptococcus pneumoniae [6]): > 20 mg/kg
MIC (Haemophilus influenzae [7]): 4 µg/mL (≈ 5.01 µM)
MIC [8]: 0.12 µg/mL (≈ 0.15 µM)
MIC (Clostridioides difficile): < 0.5 µg/mL
ED50 (Staphylococcus aureus [9]): 18 mg/kg
MIC (Streptococcus [10]): 8 µg/mL (≈ 10 µM)
MIC [11]: < 0.5 µg/mL
MIC [12]: 0.25 µg/mL (≈ 0.313 µM)
MIC (Clostridium septicum): < 0.5 µg/mL
MIC (Chlamydia trachomatis): 0.5 µg/mL (≈ 0.626 µM)
MIC (Haemophilus influenzae [13]): 32 µg/mL (≈ 40.1 µM)
MIC (Collinsella aerofaciens): 2 µg/mL (≈ 2.5 µM)
MIC (Streptococcus [14]): 16 µg/mL (≈ 20 µM)
MIC (Bacteroides fragilis [15]): 2 µg/mL (≈ 2.5 µM)
MIC (Staphylococcus aureus [16]): 0.12 µg/mL (≈ 0.15 µM)
MIC (Bacteroides fragilis [17]): 2 µg/mL (≈ 2.5 µM)
MIC (Bacteroides fragilis [18]): 2 µg/mL (≈ 2.5 µM)
MIC [19]: 2 µg/mL (≈ 2.5 µM)
MIC (Staphylococcus aureus [20]): 0.12 µg/mL (≈ 0.15 µM)
MIC (Streptococcus [21]): 8 µg/mL (≈ 10 µM)
ED50 (Streptococcus pneumoniae [22]): > 50 mg/kg
MIC (Streptococcus viridans): > 128 µg/mL
MIC (Eikenella corrodens): 2 µg/mL (≈ 2.5 µM)
MIC (Staphylococcus aureus [23]): 0.25 µg/mL (≈ 0.313 µM)
MIC (Streptococcus [24]): 8 µg/mL (≈ 10 µM)
ED50 (Streptococcus pyogenes [25]): 3.8 mg/kg
MIC (Enterococcus faecium): 4 µg/mL (≈ 5.01 µM)
MIC (Streptococcus [26]): 4 µg/mL (≈ 5.01 µM)
MIC (Streptococcus sanguinis): 1 µg/mL (≈ 1.25 µM)
MIC [27]: 1 µg/mL (≈ 1.25 µM)
MIC (Streptococcus [28]): 16 µg/mL (≈ 20 µM)
MIC (Staphylococcus aureus [29]): 0.25 µg/mL (≈ 0.313 µM)
MIC [30]: 2 µg/mL (≈ 2.5 µM)
MIC [31]: 16 µg/mL (≈ 20 µM)
MIC (Phocaeicola vulgatus): 2 µg/mL (≈ 2.5 µM)
MIC (Streptococcus pneumoniae [32]): 2 µg/mL (≈ 2.5 µM)
MIC (Streptococcus [33]): 64 µg/mL (≈ 80.1 µM)
MIC (Cutibacterium acnes): 16 µg/mL (≈ 20 µM)
MIC [34]: > 128 µg/mL
MIC (Staphylococcus aureus [35]): 0.25 µg/mL (≈ 0.313 µM)
MIC (Streptococcus [36]): 0.5 µg/mL (≈ 0.626 µM)
MIC (Haemophilus influenzae [37]): 16 µg/mL (≈ 20 µM)
MIC [38]: 2 µg/mL (≈ 2.5 µM)
